How the values were obtained:
[1] = system: HEK-Blue IL-1β cells stimulated with hIL-1α; experiment: HEK293 reporter gene assay, hIL-1α as trigger; assay type: cell-based, human
Experimental: (§1) We used HEK-Blue™ IL-1β cells that respond specifically to IL-1 (# hkb-il1b, InvivoGen). These cells can detect IL-1α and IL-1β, as these cytokines bind to the same receptor, IL-1R1. They express a Seap reporter gene under the control of the IFN-β minimal promoter fused to five NF-kappaB and five AP-1 binding sites. Thirty microliters (300,000 cells/ml) per well of a 384-well plate were plated overnight. Cells were then stimulated with graded concentrations of cytokines (hIL-1α or hIL-1β) in the absence or presence of canakinumab (Ilaris®, ILARI LYVI 150MG 22GLW.012, batch U003 0409)[22], anakinra (Kineret®, 100 mg/0.67 ml injectable solution, Sobi)[23], or compound (S)-2 (compounds were pre-mixed for 1 h with the cytokine prior to addition to cells) and further incubated overnight before assessment of Seap activity.

[2] = system: HEK-Blue IL-1β cells stimulated with hIL-1β; experiment: HEK293 reporter gene assay, hIL-1β as trigger; assay type: cell-based, human
Experimental: as §1

IL-1β = IL-1β (Homo sapiens, UniProt P01584); experiment: protein-observed 1H-13C-HMQC NMR binding (I/Io of Leu60 Cδ1H3); design: Mature hIL-1β was expressed in Escherichia coli; made in house; host or cells: Escherichia coli BL21 (DE3), pET17b
Experimental: ^1H–^13C- and ^1H–^15N-HMQC spectra were recorded on Bruker AVANCE 600 MHz and 800 MHz spectrometers equipped with TXI-cryocooled probeheads. In ligand binding experiments, protein concentrations were typically 50 μM in PBS, pH 7.4. Backbone assignments of hIL-1β in the ligand-bound state and unliganded state were obtained by a combination of a 3D triple resonance experiment HNCACB and a ^15N-edited NOESY spectrum, which were processed using TOPSPIN 3.2 and analyzed using CcpNmr AnalysisAssign 3.1.0[46]. ^15N-CEST experiments were run at weak B1 radiofrequency fields of 25 and 12.5 Hz on a Bruker AVANCE 800 MHz spectrometer with 113 increments and a total sweep width of 28 ppm in the pseudo-3D dimension. Peak intensities were extracted by fitting pseudo-Voigt lineshape models using peakipy (https://github.com/j-brady/peakipy). Fitted peak intensities were subsequently used to generate CEST profiles, and exchange parameters were fitted using ChemEx (https://github.com/gbouvignies/ChemEx).
Supplementary Figure 2. 13C-NMR and 19F-NMR reporter assays to monitor early
13C-HMQC spectra of hIL-1b (50 µM) were acquired in the presence (red) and absence (blue) of 500
µM compound and rows were extracted at the w1-frequency of the peak corresponding to Leu60 […]

[3] = system: normal human dermal fibroblasts stimulated with hIL-1α; experiment: Human fibroblast IL-6 release assay, hIL-1α stimulated; assay type: cell-based; design: IL-1alpha (mean, SD): mean readout (IL-6 release): unit not given here; conditions: for Mean OD (OD 450nm) / IL-1alpha (mean, SD): mean readout (IL-6 release): Figure 3c; for Mean OD (OD 450nm): compound 1 nM; for IL-1alpha (mean, SD): mean readout (IL-6 release): compound @ 1nM
Experimental: as §1
(§2) Normal human dermal fibroblasts (NHDF) from Clonetics^TM (LONZA, Cat # CC-2509 (NHDF-Neo), Lot # 0000234242, used at passage ≤14) were seeded at a density of 5000 cells/well in 100 μL of culture medium using 96-well plates (flat bottom, TCT). Treatment with cytokines/compounds was performed as described above. Cells were incubated for another 6 h and were subsequently spun down (320g/3 min). IL-6 was measured in the supernatant by ELISA (BioLegend, # 430503) or HTRF (Cisbio, #62HIL06PEH).

[4] = system: normal human dermal fibroblasts stimulated with hIL-1β; experiment: Human fibroblast IL-6 release assay, hIL-1β stimulated; assay type: cell-based; design: IL-6, average / inhibition, replicates of EXP1, EXP2, EXP3 / inhibition, Mean / IL-1beta (mean, SD): mean readout (IL-6 release): unit not given here; conditions: for Mean OD (OD 450nm) / IL-1beta (mean, SD): mean readout (IL-6 release): Figure 3c; for Mean OD (OD 450nm): compound 1 nM; for IL-1beta (mean, SD): mean readout (IL-6 release): compound @ 1nM
Experimental: as §1, §2

Chain of IL-1β (P01584 117-269): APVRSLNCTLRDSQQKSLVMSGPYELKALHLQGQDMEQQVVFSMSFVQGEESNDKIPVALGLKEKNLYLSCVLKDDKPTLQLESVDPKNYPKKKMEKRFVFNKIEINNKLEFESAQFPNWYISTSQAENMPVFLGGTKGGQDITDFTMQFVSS

`Cc1ccc2c(c1)NC(=O)[C@@]2(c1cn[nH]c1)c1cc(-c2ccc(C(=O)O)cc2C(=O)O)ccc1O` [(S) 2] was tested, and the “reporter gene assay signal, mean (Figure 3d)” value (from here on “reporter gene assay signal”) ([1]; IL-1alpha 3.04596 pg/ml, inhibitor 50uM) was 0.08, the “reporter gene assay signal” value ([1]; IL-1alpha 6.09192 pg/ml, inhibitor 50uM) was 0.1 and the “reporter gene assay signal” value ([1]; IL-1alpha 12.1838 pg/ml, inhibitor 50uM) was 0.15. The “reporter gene assay signal” value ([1]; IL-1alpha 24.3677 pg/ml, inhibitor 50uM) was 0.1, the “reporter gene assay signal” value ([1]; IL-1alpha 48.7353 pg/ml, inhibitor 50uM) was 0.59 and the “reporter gene assay signal” value ([1]; IL-1alpha 97.4707 pg/ml, inhibitor 50uM) was 1.08. For the same molecule, the “reporter gene assay signal” value ([1]; IL-1alpha 194.941 pg/ml, inhibitor 50uM) was 1.42, the “reporter gene assay signal” value ([1]; IL-1alpha 389.883 pg/ml, inhibitor 50uM) was 1.67 and the “reporter gene assay signal” value ([1]; IL-1alpha 779.766 pg/ml, inhibitor 50uM) was 1.82. For the same molecule, the “reporter gene assay signal” value ([1]; IL-1alpha 1559.53 pg/ml, inhibitor 50uM) was 1.88, the “reporter gene assay signal” value ([1]; IL-1alpha 3119.06 pg/ml, inhibitor 50uM) was 1.91 and the “reporter gene assay signal” value ([1]; IL-1alpha 6238.12 pg/ml, inhibitor 50uM) was 1.96. For the same molecule, the “reporter gene assay signal” value ([1]; IL-1alpha 12476.2 pg/ml, inhibitor 50uM) was 1.97, the “reporter gene assay signal” value ([1]; IL-1alpha 24952.5 pg/ml, inhibitor 50uM) was 2.03 and the “reporter gene assay signal” value ([1]; IL-1alpha 49905 pg/ml, inhibitor 50uM) was 2.01. The “reporter gene assay signal” value ([2]; IL-1beta 3.04596 pg/ml, inhibitor 50uM) was 0.06, the “reporter gene assay signal” value ([2]; IL-1beta 6.09192 pg/ml, inhibitor 50uM) was 0.06 and the “reporter gene assay signal” value ([2]; IL-1beta 12.1838 pg/ml, inhibitor 50uM) was 0.06. The “reporter gene assay signal” value ([2]; IL-1beta 24.3677 pg/ml, inhibitor 50uM) was 0.08, the “reporter gene assay signal” value ([2]; IL-1beta 48.7353 pg/ml, inhibitor 50uM) was 0.1 and the “reporter gene assay signal” value ([2]; IL-1beta 97.4707 pg/ml, inhibitor 50uM) was 0.17. The “reporter gene assay signal” value ([2]; IL-1beta 194.941 pg/ml, inhibitor 50uM) was 0.41, the “reporter gene assay signal” value ([2]; IL-1beta 389.883 pg/ml, inhibitor 50uM) was 0.84 and the “reporter gene assay signal” value ([2]; IL-1beta 779.766 pg/ml, inhibitor 50uM) was 1.26. The “reporter gene assay signal” value ([2]; IL-1beta 1559.53 pg/ml, inhibitor 50uM) was 1.6, the “reporter gene assay signal” value ([2]; IL-1beta 3119.06 pg/ml, inhibitor 50uM) was 1.74 and the “reporter gene assay signal” value ([2]; IL-1beta 6238.12 pg/ml, inhibitor 50uM) was 1.87. The “reporter gene assay signal” value ([2]; IL-1beta 12476.2 pg/ml, inhibitor 50uM) was 1.96, the “reporter gene assay signal” value ([2]; IL-1beta 24952.5 pg/ml, inhibitor 50uM) was 2.06 and the “reporter gene assay signal” value ([2]; IL-1beta 49905 pg/ml, inhibitor 50uM) was 2.02.
In the case of `O=C1Nc2cc(C(F)(F)F)ccc2[C@@]1(O)c1cc(Cl)ccc1O` [Compound (R)-1], the “binding to hIL-1β by protein-observed NMR” value (IL-1β) is reported as “only enantiomer (S)-1 showed binding to the protein”.
With “anakinra: IL-1R1 antagonist [reference compound]” the “reporter gene assay signal” value ([1]; IL-1alpha 3.04596 pg/ml, inhibitor 3nM) was 0.06, the “reporter gene assay signal” value ([1]; IL-1alpha 6.09192 pg/ml, inhibitor 3nM) was 0.06 and the “reporter gene assay signal” value ([1]; IL-1alpha 12.1838 pg/ml, inhibitor 3nM) was 0.06. For the same molecule, the “reporter gene assay signal” value ([1]; IL-1alpha 24.3677 pg/ml, inhibitor 3nM) was 0.06, the “reporter gene assay signal” value ([1]; IL-1alpha 48.7353 pg/ml, inhibitor 3nM) was 0.06 and the “reporter gene assay signal” value ([1]; IL-1alpha 97.4707 pg/ml, inhibitor 3nM) was 0.06. The “reporter gene assay signal” value ([1]; IL-1alpha 194.941 pg/ml, inhibitor 3nM) was 0.07, the “reporter gene assay signal” value ([1]; IL-1alpha 389.883 pg/ml, inhibitor 3nM) was 0.08 and the “reporter gene assay signal” value ([1]; IL-1alpha 779.766 pg/ml, inhibitor 3nM) was 0.09. The “reporter gene assay signal” value ([1]; IL-1alpha 1559.53 pg/ml, inhibitor 3nM) was 0.15, the “reporter gene assay signal” value ([1]; IL-1alpha 3119.06 pg/ml, inhibitor 3nM) was 0.24 and the “reporter gene assay signal” value ([1]; IL-1alpha 6238.12 pg/ml, inhibitor 3nM) was 0.46. The “reporter gene assay signal” value ([1]; IL-1alpha 12476.2 pg/ml, inhibitor 3nM) was 0.84, the “reporter gene assay signal” value ([1]; IL-1alpha 24952.5 pg/ml, inhibitor 3nM) was 1.11 and the “reporter gene assay signal” value ([1]; IL-1alpha 49905 pg/ml, inhibitor 3nM) was 1.47. The “effect on hIL-1α driven IL-6 release” value [3] was “could block the release of IL-6”, the “Mean OD (OD 450nm)” value ([3]; hu IL-1A 0 pg/mL) was 0.042 and the “Mean OD (OD 450nm)” value ([3]; hu IL-1A 40 pg/mL) was 0.05. For the same molecule, the “Mean OD (OD 450nm)” value ([3]; hu IL-1A 80 pg/mL) was 0.061, the “Mean OD (OD 450nm)” value ([3]; hu IL-1A 120 pg/mL) was 0.067 and the “Mean OD (OD 450nm)” value ([3]; hu IL-1A 160 pg/mL) was 0.073. The “Mean OD (OD 450nm)” value ([3]; hu IL-1A 200 pg/mL) was 0.103, the “IL-1alpha (mean, SD): mean readout (IL-6 release)” value (“IL-1alpha (mean, SD): mean readout” below) ([3]; hu IL-1a 0 pg/mL) was 0 and the “IL-1alpha (mean, SD): mean readout” value ([3]; hu IL-1a 40 pg/mL) was 0. For the same molecule, the “IL-1alpha (mean, SD): mean readout” value ([3]; hu IL-1a 80 pg/mL) was 0, the “IL-1alpha (mean, SD): mean readout” value ([3]; hu IL-1a 120 pg/mL) was 0 and the “IL-1alpha (mean, SD): mean readout” value ([3]; hu IL-1a 160 pg/mL) was 0. The “IL-1alpha (mean, SD): mean readout” value ([3]; hu IL-1a 200 pg/mL) was 3.7, the “block of hIL-1β driven IL-6 release” value [4] was “could block the release of IL-6” and the “Mean OD (OD 450nm)” value ([4]; hu IL-1b 0 pg/mL) was 0.034. For the same molecule, the “IL-1beta (mean, SD): mean readout (IL-6 release)” value (“IL-1beta (mean, SD): mean readout” below) ([4]; hu IL-1b 0 pg/mL) was 0, the “Mean OD (OD 450nm)” value ([4]; hu IL-1b 40 pg/mL) was 0.047 and the “IL-1beta (mean, SD): mean readout” value ([4]; hu IL-1b 40 pg/mL) was 0. For the same molecule, the “Mean OD (OD 450nm)” value ([4]; hu IL-1b 80 pg/mL) was 0.079, the “IL-1beta (mean, SD): mean readout” value ([4]; hu IL-1b 80 pg/mL) was 0 and the “Mean OD (OD 450nm)” value ([4]; hu IL-1b 120 pg/mL) was 0.102. The “IL-1beta (mean, SD): mean readout” value ([4]; hu IL-1b 120 pg/mL) was 0, the “Mean OD (OD 450nm)” value ([4]; hu IL-1b 160 pg/mL) was 0.157 and the “IL-1beta (mean, SD): mean readout” value ([4]; hu IL-1b 160 pg/mL) was 404.5. The “Mean OD (OD 450nm)” value ([4]; hu IL-1b 200 pg/mL) was 0.162, the “IL-1beta (mean, SD): mean readout” value ([4]; hu IL-1b 200 pg/mL) was 439.1 and the “reporter gene assay signal” value ([2]; IL-1beta 3.04596 pg/ml, inhibitor 3nM) was 0.06. The “reporter gene assay signal” value ([2]; IL-1beta 6.09192 pg/ml, inhibitor 3nM) was 0.06, the “reporter gene assay signal” value ([2]; IL-1beta 12.1838 pg/ml, inhibitor 3nM) was 0.06 and the “reporter gene assay signal” value ([2]; IL-1beta 24.3677 pg/ml, inhibitor 3nM) was 0.06. For the same molecule, the “reporter gene assay signal” value ([2]; IL-1beta 48.7353 pg/ml, inhibitor 3nM) was 0.06, the “reporter gene assay signal” value ([2]; IL-1beta 97.4707 pg/ml, inhibitor 3nM) was 0.07 and the “reporter gene assay signal” value ([2]; IL-1beta 194.941 pg/ml, inhibitor 3nM) was 0.08. For the same molecule, the “reporter gene assay signal” value ([2]; IL-1beta 389.883 pg/ml, inhibitor 3nM) was 0.09, the “reporter gene assay signal” value ([2]; IL-1beta 779.766 pg/ml, inhibitor 3nM) was 0.17 and the “reporter gene assay signal” value ([2]; IL-1beta 1559.53 pg/ml, inhibitor 3nM) was 0.37. The “reporter gene assay signal” value ([2]; IL-1beta 3119.06 pg/ml, inhibitor 3nM) was 0.68, the “reporter gene assay signal” value ([2]; IL-1beta 6238.12 pg/ml, inhibitor 3nM) was 1.15 and the “reporter gene assay signal” value ([2]; IL-1beta 12476.2 pg/ml, inhibitor 3nM) was 1.43. The “reporter gene assay signal” value ([2]; IL-1beta 24952.5 pg/ml, inhibitor 3nM) was 1.66 and the “reporter gene assay signal” value ([2]; IL-1beta 49905 pg/ml, inhibitor 3nM) was 1.81.
